Consider three compounds from paper PMC11729428, “New Potent Inhibitor of Transforming Growth Factor-Beta (TGFβ) Signaling that is Efficacious against Microsatellite Stable Colorectal Cancer Metastasis in Combination with Immune Checkpoint Therapy in Mice” (ACS Pharmacology & Translational Science, 2024).

One may read the IC50 as the concentration that gives 50% inhibition. The fraction unbound is free concentration divided by total concentration. A higher fraction unbound goes with much free substance. One may read the Kd as the concentration at which binding is half-saturated. By Cmax is commonly meant the highest concentration seen after dosing.

Read-outs that look alike come from different tables or passages of the source. A value given as a limit tells only on which side of the number the result lay.

For one data set, the target named is T1, ALK5 (TGFBR1) (Homo sapiens, UniProt P36897, T204D).
T1 sequence (P36897 200-503 T204D): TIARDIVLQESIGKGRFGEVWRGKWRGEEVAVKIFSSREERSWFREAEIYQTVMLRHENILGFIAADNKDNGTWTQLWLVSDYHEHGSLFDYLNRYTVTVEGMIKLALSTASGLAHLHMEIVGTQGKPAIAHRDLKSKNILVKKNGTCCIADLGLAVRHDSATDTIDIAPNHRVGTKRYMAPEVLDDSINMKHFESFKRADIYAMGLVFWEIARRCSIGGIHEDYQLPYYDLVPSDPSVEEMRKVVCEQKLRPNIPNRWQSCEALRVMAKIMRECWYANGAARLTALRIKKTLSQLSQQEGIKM
Put plainly: Radiometric in vitro kinase activity assay (Kinase Profiler). Type of data set: biochemical. On the procedure:
5. Methods for In vitro characterizations of HYL001
Kinase affinity and selectivity […]
The activity, measured as IC50, of inhibitors was determined by radiometric γ-33P-ATP-mediated in vitro phosphorylation assays, using the Kinase Profiler service from Eurofins Pharma Discovery Services (Wolverhampton, UK) and Eurofins Cerep (Celle L’Evescault, France). Compounds, prepared in 100% DMSO, were tested using a 9-point curve with half -log serial dilutions (1–10,000 nM). […]

Data set [1] in a line: Plasma protein binding by rapid equilibrium dialysis, human plasma. The settings on record: for fraction unbound at 4 h, 5 µM: plasma. On the procedure: (§1) 5. Methods for In vitro characterizations of HYL001 […]
(§2) Rapid equilibrium dialysis was performed in triplicates with a rapid equilibrium dialysis (RED) by Sai Life Sciences Lt. (Telangana, India). The RED device contains a dialysis membrane with a molecular weight cut -off […]
(§3) of 8,000 Da, separating two chambers for plasma and buffer, respectively. […]
(§4) were added to the plasma chamber, versus phosphate buffer saline (pH 7.4) to the buffer chamber. Dialysis was performed for 4 h with 100 RPM shaking at 37 °C. […]
(§5) compounds in plasma were either frozen immediately (T0 sample), or incubated at 37 °C for 4 h without dialysis (non-dialysed), respectively.
(§6) Following dialysis, an aliquot was removed from either chamber and diluted with equal volume of opposite matrix to nullify the matrix effect. Similarly, buffer was added to recovery and stability samples. Next, acetonitrile (containing internal standard, glipizide) was added to the mixtures for protein precipitation and vortexed for 5 minutes. The samples were centrifuged at 4000 RPM at 4 °C for 10 min and the supernatant was submitted for liquid chromatography mass spectrometry (LC-MS/MS) analysis. Samples were monitored for parent compound using multiple reaction monitoring (MRM) mode.
(§7) The peak area ratios (PAR, analyte versus internal standard) in plasma vs bufffer were used to determine the fraction of compound bound to plasma proteins. The following equation was used to determine the extent of plasma protein binding: percent free drug = 100% x (PARbuffer / PARplasma); percent bound drug = 100 - % free drug. Recovery was calculated as 100% x (PARplasma + PARbuffer)dialysed / (PARplasma)non-dialysed; stability as 100% x (PAR)non-dialysed / (PARplasma)frozen at T0. […]
(In equilibrium dialysis free small molecules cross a membrane that holds back macromolecules.)

Data set [2] is described as follows: Plasma protein binding by rapid equilibrium dialysis, rat plasma. As for the experimental part: as §1, §2, §3, §4, §5, §6, §7
The test system of a further data set is panel of enzymes. Put plainly: In vitro safety pharmacology, enzymatic inhibition (SafetyScreen 44). The format is biochemical. The note with it: 10 μM HYL001. On the procedure:
To identify potential adverse off-target drug interactions and derisk the development of HYL001 as a drug,[22] we performed binding and enzymatic inhibition assays with a panel of key proteins (mainly cell receptors, neurotransmitter transporters, and ion channels). […]
analysis by LC-MS/MS, using MRM mode. […]
related to phase I and phase II metabolism, respectively.
The PARs were used for calculation of metabolic stability. The 0 min area ratio was considered as 100%. The […]
incubation volume / number of cells (in millions) x K e. To calculate into full body context, the values of 120 […]
In vitro safety pharmacology […]
compared with historical values determined at Eurofins. Binding was defined as the % inhibition of the signal […]
enzyme activity. […] Results showing
The tail current amplitude, induced by a one […]
and expressed as % inhibition.
The Ames test was performed at Xenomatrix (Allschwil, Switzerland). Bacteria from the S. typhimurium

The subject of data set [3] is TGFβ targets (phospho-SMAD2, CTHRC1, Caldesmon). In words: Protein expression of TGFβ targets in established liver metastases. Type of data set: in vivo. The note with it: mice with established liver metastases. The source says:
(Figure S4). […] Moreover, these mice were resistant to immune checkpoint therapy like human patients with pMMR/MSS CRC are in the clinic.[5],[33]

The next data set deals with ALK5. The note with it: cited from earlier work.
A further data set has as its target T2, ALK3 (BMPR1A) (Homo sapiens, UniProt P36894).
T2 construct: purchased Eurofins/DiscoveryX (KINOMEscan service)
Also on record: method as in earlier work. The note with it: reported data ref 15; read-out: Binding constant (Kd) ALK3 (BMPR1A); cited from earlier work.

Another data set addresses T3, ALK4 (ACVR1B) (Homo sapiens, UniProt P36896).
T3 sequence (P36896 24-505): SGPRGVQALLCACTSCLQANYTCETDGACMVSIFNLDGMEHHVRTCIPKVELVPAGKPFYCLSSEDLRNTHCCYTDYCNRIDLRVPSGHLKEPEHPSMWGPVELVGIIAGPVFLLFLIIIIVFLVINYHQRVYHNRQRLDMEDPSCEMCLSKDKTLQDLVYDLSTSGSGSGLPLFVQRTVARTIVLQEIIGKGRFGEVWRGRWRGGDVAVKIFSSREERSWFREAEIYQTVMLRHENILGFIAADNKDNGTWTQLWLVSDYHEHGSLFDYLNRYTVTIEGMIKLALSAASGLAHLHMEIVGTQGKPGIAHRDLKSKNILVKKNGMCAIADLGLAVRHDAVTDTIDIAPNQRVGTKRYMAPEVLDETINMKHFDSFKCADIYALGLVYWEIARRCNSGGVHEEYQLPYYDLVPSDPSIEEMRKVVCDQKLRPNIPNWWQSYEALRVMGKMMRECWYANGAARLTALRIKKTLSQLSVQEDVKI
The note with it: reported data ref 15, read-out: Binding constant (Kd) ALK4 (ACVR1B), cited from earlier work.

The target of another data set is T4, TGFBR2 (Homo sapiens, UniProt P37173).
T4 construct: purchased Eurofins/DiscoveryX (KINOMEscan service)
T4 sequence (P37173 23-567): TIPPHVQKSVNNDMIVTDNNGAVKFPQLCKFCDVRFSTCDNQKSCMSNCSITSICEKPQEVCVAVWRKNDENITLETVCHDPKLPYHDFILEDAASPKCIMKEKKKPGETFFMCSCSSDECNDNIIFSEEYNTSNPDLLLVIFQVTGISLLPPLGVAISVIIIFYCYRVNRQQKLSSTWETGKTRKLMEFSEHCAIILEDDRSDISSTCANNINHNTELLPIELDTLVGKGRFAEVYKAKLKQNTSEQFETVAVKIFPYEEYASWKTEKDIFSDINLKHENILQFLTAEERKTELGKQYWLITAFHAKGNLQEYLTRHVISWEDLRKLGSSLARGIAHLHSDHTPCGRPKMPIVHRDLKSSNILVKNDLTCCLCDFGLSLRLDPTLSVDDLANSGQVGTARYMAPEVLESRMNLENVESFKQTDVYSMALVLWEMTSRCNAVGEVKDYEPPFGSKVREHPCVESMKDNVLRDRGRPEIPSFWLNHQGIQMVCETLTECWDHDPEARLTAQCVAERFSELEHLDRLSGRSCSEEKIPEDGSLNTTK
Also on record: method as in earlier work. The note with it: reported data ref 15; read-out: Binding constant (Kd) TGFBR2; cited from earlier work.

Details of data set [4]: method as in PMID 24786585. The note with it: rats (♀ SD), oral, 10 mg/kg ref 18; cited from earlier work.

T2 sequence (P36894 24-532): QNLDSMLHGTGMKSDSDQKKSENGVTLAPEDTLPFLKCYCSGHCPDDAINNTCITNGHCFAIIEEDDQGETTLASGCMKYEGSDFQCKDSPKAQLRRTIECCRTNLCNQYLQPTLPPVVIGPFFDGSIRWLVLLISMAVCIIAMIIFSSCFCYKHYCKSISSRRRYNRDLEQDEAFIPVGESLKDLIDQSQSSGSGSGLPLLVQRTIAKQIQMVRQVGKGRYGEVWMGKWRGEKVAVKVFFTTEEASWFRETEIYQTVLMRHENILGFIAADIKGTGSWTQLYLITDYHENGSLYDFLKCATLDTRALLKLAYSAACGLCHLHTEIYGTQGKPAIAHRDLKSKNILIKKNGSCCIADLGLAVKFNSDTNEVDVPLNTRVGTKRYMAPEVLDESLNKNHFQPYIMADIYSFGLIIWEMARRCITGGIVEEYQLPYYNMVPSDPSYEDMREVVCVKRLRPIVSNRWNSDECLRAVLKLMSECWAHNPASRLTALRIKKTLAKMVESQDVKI

Regarding `Cc1cccc(-c2nn3c(c2-c2ccnc4ccc(O)cc24)CCC3)n1` [HYL001, 4-(2-(6-Methylpyridin-2-yl)-5,6-dihydro-4H-pyrrolo[1,2-b]pyrazol-3-yl)quinolin-6-ol], the “Fold higher ALK5 IC50 than that of vactosertib” value at ALK5 (TGFBR1) was “around 3.5 fold”. Further, the “Fold increase (in vitro potency) compared to galunisertib” value on ALK5 (TGFBR1) (ALK5 IC50) is around 2.5 fold. Also, the half-inhibitory concentration (IC50) at ALK5 (TGFBR1) (recombinant TGFBR1 fragment 200–end (T204D), read-out: kinase inhibition IC50, ALK5 (TGFBR1)) worked out at 177 nM. Also, in data set [1] (human plasma, 5 µM, n=3), the “% Bound Mean ± SD” value was around 91%. The “% Compound remaining at 4 hrs” value in data set [1] (human plasma, 37 °C) came out at 101.1%; in [2] (rat plasma, 37 °C), 106.1%. The recovery at 4 h, 5 µM in data set [1] (human, plasma (rapid equilibrium dialysis device), pH 7.4) turned out to be 101%; in [2] (rat, plasma (rapid equilibrium dialysis device), pH 7.4), 100%. In addition, the fraction unbound at 4 h, 5 µM was 0.084 in data set [1] (human, pH 7.4, % Bound Mean ± SD, human plasma, 5 µM, n=3); 0.084 in data set [1] (human, pH 7.4, % Free fraction, human plasma); 0.049 in data set [2] (rat, plasma, pH 7.4). Also, the “% Free fraction” value in data set [2] (rat plasma) is on record as 4.9%. Further, in the data set on panel of enzymes, the “Inhibition of any of the tested enzymatic activities” value is at most 50%. In data set [3], the “Protein expression of TGFβ targets (phospho-SMAD2, CTHRC1, Caldesmon)” value is “marked decrease”.

Consider `Cc1cccc(-c2nn3c(c2-c2ccnc4ccc(C(N)=O)cc24)CCC3)n1` [galunisertib], for which the IC50 in the data set on ALK5 is […]. Moreover, the Kd was 16800 nM at ALK3 (BMPR1A), 77.7 nM on ALK4 (ACVR1B) (listed as Galunisertib), around 78 nM at ALK4 (ACVR1B) and 208 nM on TGFBR2.

Regarding `Cc1cccc(-c2[nH]c(CNc3ccccc3F)nc2-c2ccc3ncnn3c2)n1` [vactosertib, N -((4-([1,2,4]Triazolo[1,5-a]Pyridin-6-Yl)-5-(6-Methylpyridin-2-Yl)-1 H -Imidazole-2-Yl)Methyl)-2-Fluoroaniline], in data set [4], the AUCinf is given as 1426 ng·h/mL, the maximum concentration (Cmax) was 1620 ng/mL and the T1/2 is recorded as 2.5 h.
